pIC50: −log10 of the molar value.
Columns and labels:
[1] = target: T1, isolated kinase domain of the human FLT3 receptor (a.a. 571-993) (Homo sapiens, UniProt P36888); experiment: FLT3 Fluorescence Polarization Kinase Assay; type: biochemical; conditions: 10 nM FLT3 571-993, 150 uM ATP; uncertainty ±10%
T1 construct: isolated kinase domain of the human FLT3 receptor (a.a. 571-993)
T1 sequence (P36888 571-993): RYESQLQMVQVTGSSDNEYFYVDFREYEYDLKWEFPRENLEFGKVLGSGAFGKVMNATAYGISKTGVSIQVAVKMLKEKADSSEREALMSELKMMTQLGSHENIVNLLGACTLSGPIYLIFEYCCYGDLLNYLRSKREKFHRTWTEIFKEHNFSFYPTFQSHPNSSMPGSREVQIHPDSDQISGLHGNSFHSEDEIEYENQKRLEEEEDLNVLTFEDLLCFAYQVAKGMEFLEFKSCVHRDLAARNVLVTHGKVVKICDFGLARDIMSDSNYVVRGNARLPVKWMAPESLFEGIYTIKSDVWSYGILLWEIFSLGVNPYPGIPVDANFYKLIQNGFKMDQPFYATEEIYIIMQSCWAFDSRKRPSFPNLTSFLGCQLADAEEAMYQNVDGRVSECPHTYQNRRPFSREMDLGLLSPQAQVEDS
Description: FLT3 Fluorescence Polarization Kinase Assay
To determine the activity of the FLT3 inhibitors of Formula I′ in an in vitro kinase assay, inhibition of the isolated kinase domain of the human FLT3 receptor (a.a. 571-993) was performed using the following fluorescence polarization (FP) protocol. The FLT3 FP assay utilizes the fluorescein-labeled phosphopeptide and the anti-phosphotyrosine antibody included in the Panvera Phospho-Tyrosine Kinase Kit (Green) supplied by Invitrogen. When FLT3 phosphorylates polyGlu4Tyr, the fluorescein-labeled phosphopeptide is displaced from the anti-phosphotyrosine antibody by the phosphorylated poly Glu4Tyr, thus decreasing the FP value. The FLT3 kinase reaction is incubated at room temperature for 30 minutes under the following conditions: 10 nM FLT3 571-993, 20 ug/mL poly Glu4Tyr, 150 uM ATP, 5 mM MgCl2, 1% compound in DMSO. The kinase reaction is stopped with the addition of EDTA. The fluorescein-labeled phosphopeptide and the anti-phosphotyrosine antibody are added and incubated for 30 minutes at room temperature.
All data points are an average of triplicate samples. Inhibition and IC50 data analysis was done with GraphPad Prism using a non-linear regression fit with a multiparamater, sigmoidal dose-response (variable slope) equation.

MV4-11 cells = experiment: Inhibition of MV4-11 cell proliferation (CellTiterGlo, 72 hours); type: cell-based; conditions: Homo sapiens; 72 hours growth; uncertainty ±20%
Description: Inhibition Of MV4-11 and Baf3 Cell Proliferation
To assess the cellular potency of the FLT3 inhibitors of Formula I′, FLT3 specific growth inhibition was measured in the leukemic cell line MV4-11 (ATCC Number: CRL-9591). […] MV4-11 cells cannot grow and survive without active FLT3ITD.
To measure proliferation inhibition by test compounds, the luciferase based CellTiterGlo reagent (Promega), which quantifies total cell number based on total cellular ATP concentration, was used. Cells are plated at 10,000 cells per well in 100 ul of in RPMI media containing penn/strep, 10% FBS and 1 ng/ml GM-CSF or 1 ng/ml IL-3 for MV4-11 and Baf3 cells respectively.
Compound dilutions or 0.1% DMSO (vehicle control) are added to cells and the cells are allowed to grow for 72 hours at standard cell growth conditions (37° C., 5% CO2). For activity measurements in MV4-11 cells grown in 50% plasma, cells were plated at 10,000 cells per well in a 1:1 mixture of growth media and human plasma (final volume of 100 μL). To measure total cell growth an equal volume of CellTiterGlo reagent was added to each well, according to the manufacturer's instructions, and luminescence was quantified. Total cell growth was quantified as the difference in luminescent counts (relative light units, RLU) of cell number at Day 0 compared to total cell number at Day 3 (72 hours of growth and/or compound treatment). One hundred percent inhibition of growth is defined as an RLU equivalent to the Day 0 reading. Zero percent inhibition was defined as the RLU signal for the DMSO vehicle control at Day 3 of growth. All data points are an average of triplicate samples. […] Inhibition and IC50 data analysis was done with GraphPad Prism using a non-linear regression fit with a multiparamater, sigmoidal dose-response (variable slope) equation.
MV4-11 cells express the FLT3 internal tandem duplication mutation, and thus are entirely dependent upon FLT3 activity for growth. […] In contrast, the Baf3 cell proliferation is driven by the cytokine IL-3 and thus are used as a non-specific toxicity control for test compounds.

Structure (SMILES) | pIC50 [1] | pIC50 (MV4-11 cells)
CC(C)Oc1ccc(NC(=O)OC2CCN(c3ncnc(N)c3/C=N/OCCN3CCOCC3)CC2)cc1 [Number 3, (4-Isopropoxy-phenyl)-carbamic acid 1-{6-amino-5-[(2-morpholin-4-yl-ethoxyimino)-methyl]-pyrimidin-4-yl}-piperidin-4-yl ester] | 6.09 | 5.55
CO/N=C/c1c(N)ncnc1N1CCC(NC(=O)Cc2ccc(C(C)C)cc2)CC1 [Number 16, N-{1-[6-Amino-5-(methoxyimino-methyl)-pyrimidin-4-yl]-piperidin-4-yl}-2-(4-isopropyl-phenyl)-acetamide] | 5.74 | 5.85

Second part, the molecule after the results:

pIC50 [1] | pIC50 (MV4-11 cells) | Structure (SMILES)
6.70 | 5.96 | CO/N=C/c1c(N)ncnc1N1CCC(NC(=O)Nc2ccc(N3CCCC3)cc2)CC1 [Number 24, 1-{1-[6-Amino-5-(methoxyimino-methyl)-pyrimidin-4-yl]-piperidin-4-yl}-3-(4-pyrrolidin-1-yl-phenyl)-urea]
< 5.00 | 5.77 | CC(C)c1ccc(NC(=O)NC2CCN(c3ncnc(N)c3/C=N/OCCN)C2)cc1 (stereo not shown) [Number 27, 1-(1-{6-Amino-5-[(2-amino-ethoxyimino)-methyl]-pyrimidin-4-yl}-pyrrolidin-3-yl)-3-(4-isopropyl-phenyl)-urea]
5.33 | 6.68 | CO/N=C/c1c(N)ncnc1N1CCC(NC(=O)Nc2ccc(C(C)C)cc2)C1 (stereo not shown) [Number 30, 1-{1-[6-Amino-5-(methoxyimino-methyl)-pyrimidin-4-yl]-pyrrolidin-3-yl}-3-(4-isopropyl-phenyl)-urea]

From patent US20060281700A1, “SYNERGISTIC MODULATION OF FLT3 KINASE USING AMINOPYRIMIDINES KINASE MODULATORS” (priority 2005, published 2006)
